# Results as given in US11466023B2, “Combination of a Mcl-1 inhibitor and a standard of care treatment for hematologic cancers, uses and pharmaceutical compositions thereof” (LES LABORATOIRES SERVIER, priority 2017, dated 2022).
# Read-outs that look alike come from different tables or passages of the source.
# Legend:
# KG1 AML cell line = assay: Single agent cell viability (CellTiterGlo); assay type: cell-based
# Experimental: (§1) Cell lines were cultured at 37° C. in a humidified atmosphere containing 5% CO2 and expanded in T-150 flasks. […] In order to analyse the activity of the compounds as single agents, cells were seeded and treated with nine 2-fold serial dilutions of each compound dispensed individually directly into the cell assay plates. […] All the experiments were performed in triplicates. Luminescence was quantified on a multipurpose plate reader. Single agent IC50s were calculated using standard four-parametric curve fitting.
# THP-1 AML cell line = assay: Single agent cell viability (CellTiterGlo); assay type: cell-based
# Experimental: as §1
# GDM-1 AML cell line = assay: Single agent cell viability (CellTiterGlo); assay type: cell-based
# Experimental: as §1
# MOLM-13 AML cell line = assay: Single agent cell viability (CellTiterGlo); assay type: cell-based
# Experimental: as §1
# Kasumi-1 AML cell line = assay: Single agent cell viability (CellTiterGlo); assay type: cell-based
# Experimental: as §1
# Nomo-1 AML cell line = assay: Single agent cell viability (CellTiterGlo); assay type: cell-based
# Experimental: as §1
# HL-60 AML cell line = assay: Single agent cell viability (CellTiterGlo); assay type: cell-based
# Experimental: as §1
# OCI-AML3 AML cell line = assay: Single agent cell viability (CellTiterGlo); assay type: cell-based
# Experimental: as §1
# EOL-1 AML cell line = assay: Single agent cell viability (CellTiterGlo); assay type: cell-based
# Experimental: as §1
# ML-2 AML cell line = assay: Single agent cell viability (CellTiterGlo); assay type: cell-based
# Experimental: as §1
# MV4; 11 AML cell line = assay: Single agent cell viability (CellTiterGlo); assay type: cell-based
# Experimental: as §1
# KG1a AML cell line = assay: Single agent cell viability (CellTiterGlo); assay type: cell-based
# Experimental: as §1
# PL-21 AML cell line = assay: Single agent cell viability (CellTiterGlo); assay type: cell-based
# Experimental: as §1
# [1] = test system: normal human CD34+ progenitor cells; details: 100 nM
# primary AML samples = details: a subset of primary AML samples, 100 nM
# [2] = test system: mononuclear cells from AML patient samples; assay: Cell viability assay (Sytox blue flow cytometry) in primary AML samples; assay type: cell-based, human; details: combination at 1:1 ratio, read-out: 50% lethal concentration (LC50)
# Experimental: Bone marrow samples from patients with AML were collected after informed consent in accordance with guidelines approved by The Alfred Hospital Human research ethics committee.
# Mononuclear cells were isolated by density-gradient centrifugation Ficoll-Hypaque (GE Healthcare, Australia) density-gradient centrifugation and red cell lysis was performed using 0.156 M NH4Cl, 0.017 M Tris-HCl pH 7.2 as previously described (Rijal et al., Blood 2015, 125, 2815-2824). Cells were then re-suspended in phosphate-buffered saline containing 2% Fetal Bovine serum (FBS; Sigma, Australia). Mononuclear cells were then suspended in RPMI-1640 (GIBCO, Australia) medium containing penicillin and streptomycin (GIBCO) and heat inactivated fetal bovine serum 15% (Sigma). Cells were washed in phosphate-buffered saline (PBS) containing 2% FBS prior to use.
# Freshly purified mononuclear cells from AML patient samples were adjusted to a concentration of 2.5×10^5/mL and 100 μL of cells aliquoted per well into 96 well plates (Sigma). Cells were then treated with idarubicin and Compound 2 over a […] concentration range from 1 nM to 10 μM for 48 hours. For combinations assays, drugs were added at a 1:1 ratio from 1 nM to 10 μM and cells were incubated at 37° C. 5% CO2. Cells were then stained with Sytox blue nucleic acid stain (Invitrogen, Australia) and fluorescence measured by flow cytometric analysis using the LSR-II Fortessa (Becton Dickinson, Australia). FACSDiva software was used for data collection, and FlowJo software for analysis. Blast cells were gated using forward and side scatter properties. Viable cells excluding Sytox blue were determined at 6 concentrations for each drug and the 50% lethal concentration (LC50, in μM) determined.
# [3] = KG1, single agent, 3 days incubation, CellTiterGlo, read-out: IC50
# [4] = THP-1, single agent, 3 days incubation, CellTiterGlo, read-out: IC50
# [5] = GDM-1, single agent, 3 days incubation, CellTiterGlo, read-out: IC50
# [6] = MOLM-13, single agent, 3 days incubation, CellTiterGlo, read-out: IC50
# [7] = Kasumi-1, single agent, 3 days incubation, CellTiterGlo, read-out: IC50
# [8] = Nomo-1, single agent, 3 days incubation, CellTiterGlo, read-out: IC50
# [9] = HL-60, single agent, 3 days incubation, CellTiterGlo, read-out: IC50
# [10] = OCI-AML3, single agent, 3 days incubation, CellTiterGlo, read-out: IC50
# [11] = EOL-1, single agent, 3 days incubation, CellTiterGlo, read-out: IC50
# [12] = ML-2, single agent, 3 days incubation, CellTiterGlo, read-out: IC50
# [13] = MV4, 11, single agent, 3 days incubation, CellTiterGlo, read-out: IC50
# [14] = KG1a, single agent, 3 days incubation, CellTiterGlo, read-out: IC50
# [15] = PL-21, single agent, 3 days incubation, CellTiterGlo, read-out: IC50
compound,measurement,setting,value
"COc1ccccc1-c1nccc(COc2ccccc2C[C@@H](Oc2ncnc3sc(-c4ccc(F)cc4)c(-c4ccc(OCCN5CCN(C)CC5)c(Cl)c4C)c23)C(=O)O)n1 [Compound 1, (2R)-2-{[(5Sa)-5-{3-chloro-2-methyl-4-[2-(4-methylpiperazin-1-yl)ethoxy]phenyl}-6-(4-fluorophenyl)thieno[2,3-d]pyrimidin-4-yl]oxy}-3-(2-{[2-(2-methoxyphenyl)pyrimidin-4-yl]methoxy}phenyl)propanoic acid]",IC50,KG1 AML cell line; [3],0.39 µM
same,IC50,THP-1 AML cell line; [4],0.017 µM
same,IC50,GDM-1 AML cell line; [5],0.008 µM
same,IC50,MOLM-13 AML cell line; [6],0.002 µM
same,IC50,Kasumi-1 AML cell line; [7],0.033 µM
same,IC50,Nomo-1 AML cell line; [8],0.013 µM
same,IC50,HL-60 AML cell line; [9],0.025 µM
same,IC50,OCI-AML3 AML cell line; [10],0.146 µM
same,IC50,EOL-1 AML cell line; [11],0.001 µM
same,IC50,ML-2 AML cell line; [12],0.005 µM
same,IC50,MV4; 11 AML cell line; [13],0.001 µM
same,IC50,KG1a AML cell line; [14],2 µM
same,IC50,PL-21 AML cell line; [15],0.065 µM
"Cc1c(-c2c(-c3ccc(F)o3)sc3ncnc(O[C@H](Cc4ccccc4OCc4ccnn4CC(F)(F)F)C(=O)O)c23)ccc(OCCN2CCN(C)CC2)c1Cl [Compound 2, (2R)-2-{[(5Sa)-5-{3-chloro-2-methyl-4-[2-(4-methylpiperazin-1-yl)ethoxy]phenyl}-6-(5-fluorofuran-2-yl)thieno[2,3-d]pyrimidin-4-yl]oxy}-3-(2-{[1-(2,2,2-trifluoroethyl)-1H-pyrazol-5-yl]methoxy}phenyl)propanoic acid]",IC50,KG1 AML cell line; [3],0.413 µM
same,IC50,THP-1 AML cell line; [4],0.051 µM
same,IC50,GDM-1 AML cell line; [5],0.027 µM
same,IC50,MOLM-13 AML cell line; [6],0.004 µM
same,IC50,Kasumi-1 AML cell line; [7],0.066 µM
same,IC50,Nomo-1 AML cell line; [8],0.022 µM
same,IC50,HL-60 AML cell line; [9],0.086 µM
same,IC50,OCI-AML3 AML cell line; [10],0.34 µM
same,IC50,EOL-1 AML cell line; [11],0.002 µM
same,IC50,ML-2 AML cell line; [12],0.022 µM
same,IC50,MV4; 11 AML cell line; [13],0.001 µM
same,IC50,KG1a AML cell line; [14],2.2 µM
same,IC50,PL-21 AML cell line; [15],0.238 µM
same,clonogenic growth,[1],resistant
same,clonogenic growth,primary AML samples,resistant
same,CC50,"[2]; Patient AML 6200840, 48 hours",0.227 µM
same,CC50,"[2]; Patient AML AH0131936, 48 hours",10.7 µM
same,CC50,"[2]; Patient AML AH0465385, 48 hours",23 µM
same,CC50,"[2]; Patient AML AH0607688, 48 hours",22.9 µM
same,CC50,"[2]; Patient AML AH0979006, 48 hours",0.0618 µM
same,CC50,"[2]; Patient AML AH1081582, 48 hours",4.36 µM
same,CC50,"[2]; Patient AML AH1228742, 48 hours",5360 µM
same,CC50,"[2]; Patient AML AH6120264, 48 hours",0.679 µM
same,CC50,"[2]; Patient AML AH6181414_2, 48 hours",15.5 µM
same,CC50,"[2]; Patient AML AH6202849, 48 hours",13 µM
same,CC50,"[2]; Patient AML AH6208160, 48 hours",21.6 µM
same,CC50,"[2]; Patient AML AH6208654, 48 hours",9.42 µM
same,CC50,"[2]; Patient AML AH6210946, 48 hours",0.0556 µM
same,CC50,"[2]; Patient AML AH6214498, 48 hours",0.000868 µM
same,CC50,"[2]; Patient AML AH6217528, 48 hours",1.16 µM
same,CC50,"[2]; Patient AML AH6219953, 48 hours",38.8 µM
same,CC50,"[2]; Patient AML AH6220847, 48 hours",0.21 µM
same,CC50,"[2]; Patient AML AH6223646, 48 hours",0.148 µM
same,CC50,"[2]; Patient AML AH6224104, 48 hours",608 µM
same,CC50,"[2]; Patient AML AH6229985, 48 hours",0.00483 µM
same,CC50,"[2]; Patient AML AH6607085, 48 hours",0.143 µM
same,CC50,"[2]; Patient AML AH6615742, 48 hours",14.5 µM
same,CC50,"[2]; Patient AML AH6627892, 48 hours",14.2 µM
"Nc1ncn([C@H]2C[C@H](O)[C@@H](CO)O2)c(=O)n1 [Decitabine, decitabine]",IC50,KG1 AML cell line; 72 h,5.8 µM
same,IC50,"THP-1 AML cell line; Homo sapiens, THP-1, 72 h",> 30 µM
same,IC50,"GDM-1 AML cell line; Homo sapiens, GDM-1, 72 h",41 µM
same,IC50,"MOLM-13 AML cell line; Homo sapiens, MOLM-13, 72 h",0.4 µM
same,IC50,"Kasumi-1 AML cell line; Homo sapiens, Kasumi 1, 72 h",5.5 µM
same,IC50,"Nomo-1 AML cell line; Homo sapiens, NOMO-1, 72 h",> 5 µM
same,IC50,"HL-60 AML cell line; Homo sapiens, HL-60, 72 h",14 µM
same,IC50,"OCI-AML3 AML cell line; Homo sapiens, OCI-AML-3, 72 h",8 µM
same,IC50,"EOL-1 AML cell line; Homo sapiens, EOL1, 72 h",0.49 µM
same,IC50,ML-2 AML cell line; 72 h,14 µM
same,IC50,"MV4; 11 AML cell line; Homo sapiens, MV4-11, 72 h",0.4 µM
same,IC50,"KG1a AML cell line; Homo sapiens, KG-1a, 72 h",14 µM
same,IC50,"PL-21 AML cell line; PL-21, 72 h",> 5 µM
